Test results reported in patent US20200309872A1, “APPARATUS AND METHOD OF AIR-SUSPENDED BIOFABRICATION OF TISSUE-ENGINEERED ORGAN CONSTRUCTS AND CONGLOMERATES OF SPHEROIDS, CELLS AND OTHER BIOLOGICAL OBJECTS BY USING MAGNETIC FIELD” (priority 2019, published 2020).

What was measured:
Assay type in all cases: cell-based
[1] = test system: chondrospheres from primary sheep chondrocytes; experiment: Fusion of 30 chondrospheres into a microtissue construct in non-adhesive microplate
Method: To check the possibility of microtissue construct biofabrication at different concentrations of Gd3+, 30 chondrospheres were placed in the same well of non-adhesive microplate and allowed fusion for 48 hours (FIG. 5c). […] Scale bar −500 μm.

[2] = test system: chondrospheres from primary sheep chondrocytes; experiment: Tissue spheroid viability, CellTiter-Glo 3D (cytoplasmic ATP luminescence); conditions: 24 hours of incubation
Method: The viability of tissue spheroids was assessed using the CellTiter-Glo 3D kit according to the manufacturer protocol. Briefly, 3-day-old tissue spheroids with a starting cell number of 8000 cells were placed in 0, 50 and 250 mM Gd3+ concentrations for 24 hours. Then CellTiter-Glo 3D kit was added and luminescence was recorded after 30 min incubation using VICTOR X3 Multilabel Plate Reader (Perkin Elmer, USA).
(§1) The viability of cells within tissue spheroids was analyzed by measuring the luminescent signal generated by luciferin-luciferase interconnection as a function of cytoplasmic ATP concentration. […] The highly statistically significant difference (p<0.0005) in cell density corresponded to 85% in 50 mM Gd3+ solution compared to 100% in 0 mM Gd3+ solution, while the cell density at 250mM Gd3+ concentration was 40% (FIG. 3c).

[3] = test system: chondrospheres from primary sheep chondrocytes; experiment: Spheroid fusion assay (spheroid doublets)
Method: Spheroid fusion assay was performed using Corning spheroid microplates (Corning, cat.# 4520). Pairs of 3-day-old tissue spheroids with a starting cell number of 8000 cells were placed in contact in 0, 50 and 250 mM Gd3+ concentrations and incubated for 7 days. Bright-field images of spheroid doublets were obtained at points 0 h, 4 h, 6 h, 1 day, 2 days, 3 days, 4 days and 7 days using Nikon Eclipse Ti-S microscope. Contact length, intersphere angle and doublet length were measured using Image J 1.48v software (NIH, Bethesda, Md., USA) and plotted as a function of time using GraphPad Prism software (GraphPad Software, Inc., La Jolla, Calif.). Doublet length (FIG. 5) was normalized to initial doublet length. Measurements for each parameter were reported as mean ±S.E.M.
To investigate the fusion of tissue spheroids at different Gd3+ concentrations, the pairs of spheroids were placed in contact with each other in the same well of low adhesion microplate and allowed to fuse for 7 days. The kinetics of tissue spheroid fusion was monitored and analyzed daily at bright-field under inverted microscope. Contact length, intersphere angle and doublet length were measured. […] Spheroid doublet in 0 mM Gd3+ solution shortened faster than spheroid doublet in 50 mM Gd3+ solution.

[4] = test system: chondrospheres from primary sheep chondrocytes; experiment: Histological analysis on semi-thin sections of tissue spheroids (toluidine blue)
Method: Tissue spheroids were fixed with 2.5% glutaraldehyde/PBS and then treated with 1% osmium tetraoxide/PBS. The samples were dehydrated by soaking in a series of solutions of increasing concentrations of ethanol, stained with 1% uranyl acetate/70% ethanol and finally embedded to araldite-epon mixture. Semi-thin sections were prepared on a LKB-III ultratome (Sweden), stained with 1% toluidine blue and then examined using a light microscope (Leica DM 2500, Germany) equipped with a digital camera (Leica DFC 290, Germany).
A histological analysis on semi-thin sections of 3-day-old tissue spheroids was performed in order to estimate possible toxic effects and to determine an optimal nontoxic Gd3+ concentration (FIG. 3a). […] Scale bar—100μm.

[5] = test system: chondrospheres from primary sheep chondrocytes; experiment: Estimation of spheroid cell density by cell counting on semi-thin sections
Method: Spheroid cell density was estimated by analysis of semi-thin sections of tissue spheroids using Image J 1.48v software (NIH, Bethesda, Md., USA).
as §1

[6] = test system: chondrospheres from primary sheep chondrocytes; experiment: Mechanical testing of tissue spheroids (parallel-plate compression, Microsquisher); conditions: for elastic modulus of spheroids: 24 hours, 0 mM control 2.91±0.15 kPa
Method: The mechanical properties of tissue spheroids were measured by a micro-scale parallel-plate compression testing system Microsquisher (CellScale, Canada) with associated SquisherJoy software. Tissue spheroids with a starting cell number of 8000 cells were formed using Corning spheroid microplates. They were cultured 3 days and then placed in 0, 50 and 18 250 mM Gd3+ concentrations for 24 hours prior to mechanical characterization. For mechanical testing spheroids were placed in a PBS-filled bath at 37° C. and compressed to 50% deformation in 20 sec. The microbeams with diameters 152.4 μm (recommended max force […]) and 304.8 μm (recommended max force […]) were employed depending on the stiffness and sensitivity required to measure tissue spheroids from different cell types. The force-displacement data obtained from the compression test were converted to stress-strain curves and the lower portion of the curve (0-20% strain) was used to obtain a linear regression line and estimate the Young's modulus. In each group eight samples of spheroids were measured.
The influence of gadolinium Gd3+ on mechanical properties of tissue spheroids was estimated by tensiometry using parallel plates modification. […] The values of elastic modulus of spheroids in 0 and 50 mM Gd3+ solutions were 2.91±0.15 kPa and 18 2.95±0.1 kPa, correspondingly. […] This observation can be explained by low viability of tissue spheroids in 250 mM Gd3+ solution.
The sharp rise of the curve in the area of high strain values is associated with an increase of the tissue spheroid cross section. […] The stress-strain curve changes practically linearly before this strain; in this section we calculated the Young's modulus.

CNC(=O)CN(CCN(CCN(CC(=O)[O-])CC(=O)NC)CC(=O)[O-])CC(=O)[O-].[Gd+3] [Gd3+, Gadodiamide]
construct formation from 30 chondrospheres ([1]; 50 mM Gd3+, 2 days of incubation): formation of compact constructs was observed | construct formation from 30 chondrospheres ([1]; 250 mM Gd3+, 48 hours): no constructs were formed | viability of tissue spheroids ([2]; 50 mM Gd3+): remained viable | viability of tissue spheroids ([2]; 250 mM Gd3+): significant toxic effect | fusion of spheroid pair (contact length, intersphere angle, doublet length) ([3]; 50 mM Gd3+, up to 7 days): contact lengths and intersphere angles increased as a function of time and doublet lengths shortened gradually | cytotoxicity ([3]; 250 mM Gd3+): high cytotoxicity | fusion of spheroid pair ([3]; 250 mM Gd3+, up to 7 days): continued to fuse during first 24 hours and then no further progressive aggregation was observed | intersphere angle ([3]; seventh day of incubation, follows the 0 and 50 mM Gd3+ results, concentration not restated, indicates complete fusion): 179 ° | cell density (histology, qualitative) ([4]; 50 mM Gd3+ solution): cell density did not change | cytoplasm staining ([4]; 50 mM Gd3+ solution): slightly reduced | toxic effect on chondrospheres morphology ([4]; 250 mM Gd3+, 3-day-old spheroids, toluidine blue staining): severe toxic effect | cell density (histology, qualitative) ([4]; 250 mM Gd3+, cell death and apoptosis, pycnotic nuclei, extracellular debris): cell density dramatically reduced | cell density compared to 100% in 0 mM Gd3+ solution ([5]; 50 mM Gd3+ solution): 85% | cell density compared to 100% in 0 mM Gd3+ solution ([5]; 250 mM Gd3+): 40% | effect on tissue spheroids Young's modulus ([6]; 50 mM Gd3+ in the growth medium): does not affect | elastic modulus of spheroids ([6]; 50 mM Gd3+): 2.95±0.1 kPa | decrease of Young's modulus ([6]; 250 mM Gd3+): ~93% | elastic modulus of spheroids ([6]; 250 mM Gd3+): 0.14±0.05 kPa
